Experimental data published in patent US7153824B2, “Inhibitors of phosphodiesterases in infertility” (Applied Research Systems ARS Holding N.V., priority 2003, dated 2006).
“Also recorded” adds a separate entry of the source.

Experiments:
[1] = tested on: Immature Sprague Dawley CD (SD) BR female rats; assay: In vivo Rat Follicle Maturation Assay (ovulated oocytes after r-hCG); conditions: for ovulatable oocytes compared with high dose of FSH alone: 0.4 mg/kg combined with low dose of FSH; for effect on FSH-induced follicle maturation: in vivo, with FSH
[2] = tested on: Immature Sprague Dawley CD (SD) BR female rats; assay: Histological count of secondary and antral follicles in rat ovaries; type: in vivo
PDE1 = conditions: cited from earlier work
PDE3 = conditions: cited from earlier work
PDE5 = PDE5 (Homo sapiens, UniProt O76074); conditions: cited from earlier work
[3] = test compound 1 mg/kg×4 injections s.c. in NP3S with Low Dose FSH
[4] = test compound 1 mg/kg×4 s.c. in NP3S with Low Dose FSH
[5] = test compound 5 mg/kg×4 injections s.c. in NP3S with Low Dose FSH
[6] = test compound 5 mg/kg×4 s.c. in NP3S with Low Dose FSH
[7] = test compound 5 mg/kg×4 s.c. in aqueous vehicle with Low Dose FSH
[8] = test compound 25 mg/kg×4 injections s.c. in NP3S with Low Dose FSH
[9] = test compound 25 mg/kg×4 s.c. in NP3S with Low Dose FSH

Compound: CCCc1nn(C)c2c(=O)[nH]c(-c3cc(S(=O)(=O)N4CCN(C)CC4)ccc3OCC)nc12 [Sildenafil, 5-[2-ethoxy-5-(4-methyl-1-piperazinylsulphonyl)phenyl]-1-methyl-3-n-propyl-1,6-dihydro-7H-pyrazolo[4,3-d]pyrimidin-7-one]
- number of ovulated oocytes per rat as compared to Low Dose FSH alone plus aqueous vehicle control ([1]; 1, 5 and 25 mg/kg×4 s.c. in aqueous vehicle with Low Dose FSH): dose-related increase
- average number of oocytes per rat [1, 3]: 3.5
- rats ovulated [1, 4]: 6 out of 8
- average number of oocytes per rat [1, 5]: 5.5
- rats ovulated [1, 6]: 5 out of 8
- average number of oocytes per rat [1, 7]: 20
- rats ovulated [1, 7]: 7 out of 8
- average number of oocytes per rat [1, 8]: 6.9
- rats ovulated [1, 9]: 7 out of 8
- Follicular growth activity with Low FSH? [1]: YES
- total number of antral follicles per rat (2 ovaries) ([2]; Low FSH + 75 mg/kg Sildenafil): 7.4
- total number of secondary follicles per rat (2 ovaries) ([2]; Low FSH + 75 mg/kg Sildenafil (25 mg/kg×3)): 84
- IC50 (PDE1): 260 nM

Compound: CN1CC(=O)N2[C@H](c3ccc4c(c3)OCO4)c3[nH]c4ccccc4c3C[C@@H]2C1=O [Tadalafil, (6R,12aR)-2,3,6,7,12,12a-hexahydro-2-methyl-6-(-3,4-methylenedioxyphenyl)pyrazino[2′,1′:6,1]pyrido[3,4-b]indole-1,4-dione]
- average number of oocytes per rat ([1]; test compound 25 mg/kg×4 s.c. in water with Low Dose FSH): 16
- Follicular growth activity with Low FSH? [1]: YES
- IC50 (PDE1): > 30000 nM

Compound: COc1ccc(C(=O)Nc2c(Cl)cncc2Cl)cc1OC1CCCC1 [Piclamilast]
- ovulatable oocytes compared with high dose of FSH alone [1]: produces more ovulatable oocytes than even the high dose of FSH alone
- follicle maturation, compound alone ([1]; 2 mg/kg, without co-administration of FSH): did induce follicle maturation; also recorded: increased the hCG ovulatable oocytes
- follicle maturation, compound alone ([1]; 0.08 and 0.4 mg/kg, absence of exogenous FSH): not sufficient to induce follicle maturation
- follicle maturation (number of ovulatable oocytes) ([1]; in the presence of low doses of FSH): very marked induction in follicle maturation
- effect on FSH-induced follicle maturation [1]: increased FSH-induced follicle maturation

Compound: COc1ccc([C@H](Cc2ccncc2)c2ccccc2)cc1OC1CCCC1 [CDP840]
- Follicular growth activity with Low FSH? [1]: Inhibits follicular growth

Compound: CCCOc1cc([C@]2(C)CNC(=O)O2)ccc1OC [Mesopram]
- follicular maturation, lower dose series ([1]; 0.032, 0.016, 0.08 mg/kg together with a low dose of FSH, significance at 0.08 mg/kg): dose dependent increase in follicular maturation
- follicular maturation versus low FSH alone ([1]; 0.08, 0.4, and 2 mg/kg/day together with a low dose of FSH): significant enhancement of follicular maturation
- follicular maturation at higher doses ([1]; higher doses of the 0.08-2 mg/kg/day series, with low dose FSH): decrease in follicular maturation

Compound: O=C(Nc1c(Cl)cncc1Cl)c1ccc(OC(F)F)c(OCC2CC2)c1 [Roflumilast]
- ovulatable oocytes compared with high dose of FSH alone [1]: produces more ovulatable oocytes than even the high dose of FSH alone
- effect on FSH-induced follicle maturation [1]: increased FSH-induced follicle maturation

Compound: 5′-Methyl-2′(biphenylylmethyl)-3′-(phenylmethyl)spiro[cyclopentane-1,7′(8′h)-[3H]imidazo[2,1-b]purin]-4(5′h)-one [Compound no. 33]
- average number of oocytes per rat [1, 8]: 27
- Follicular growth activity with Low FSH? [1]: YES
- IC50 (PDE5): 200 nM
- IC50 (PDE1): 0.6 nM

Compound: COc1ccc([C@]2(C#N)CC[C@@H](C(=O)O)CC2)cc1OC1CCCC1 [ARIFLO (Cilomilast), Cilomilast]
- Follicular growth activity with Low FSH? [1]: Inhibits follicular growth

Compound: OCCN(CCO)c1nc(N2CCCCC2)c2nc(N(CCO)CCO)nc(N3CCCCC3)c2n1 [Dipyridamole]
- average number of oocytes per rat [1, 3]: 7.5
- rats ovulated [1, 4]: 7 out of 10
- average number of oocytes per rat [1, 5]: 6.8
- rats ovulated [1, 6]: 6 out of 10
- average number of oocytes per rat [1, 8]: 6.2
- rats ovulated [1, 9]: 10 out of 10
- Follicular growth activity with Low FSH? [1]: YES

Compound: CCCOc1ccccc1-c1nc2nn[nH]c2c(=O)[nH]1 [Zaprinast]
- average number of oocytes per rat [1, 3]: 3.25
- rats ovulated [1, 4]: 6 out of 10
- average number of oocytes per rat [1, 5]: 6.4
- rats ovulated [1, 6]: 9 out of 10
- average number of oocytes per rat [1, 8]: 9.5
- rats ovulated [1, 9]: 10 out of 10
- Follicular growth activity with Low FSH? [1]: YES
- IC50 (PDE1): 9400 nM
- IC50 (PDE3): > 100000 nM

Compound: (6aR,9aS)-2-(Biphenylylmethyl)-5,6a,7,8,9,9a-hexahydro-5-methyl-3(phenylmethyl)cyclopent[4,5]imidazo-[2,1-b]purin-4(3H)-one [Compound no. 31]
- average number of oocytes per rat [1, 8]: 18
- Follicular growth activity with Low FSH? [1]: YES
- IC50 (PDE5): 305 nM
- IC50 (PDE1): 0.07 nM
